In ChEMBL document CHEMBL3132750, “4-Chlorocolchicine derivatives bearing a thiourea side chain at the C-7 position as potent anticancer agents” (Medchemcomm, 2014):

target: Tubulin (Sus scrofa, UniProt P02554+P02550); experiment: Inhibition of tubulin polymerization assessed as reduction in tubulin assembly after 5 mins using pig microtubule protein by spectrophotometry; assay type: protein assay; details: not given

Structure (SMILES)	IC50 [µM]
COc1c(Cl)c2c(c(OC)c1OC)-c1ccc(OC)c(=O)cc1[C@@H](NC(=S)Nc1cc(C)[nH]n1)CC2	1.11
CCNC(=S)N[C@H]1CCc2c(Cl)c(OC)c(OC)c(OC)c2-c2ccc(OC)c(=O)cc21	2.36

system: Mus musculus; experiment: Toxicity in human HCT116 cells xenografted in BALB/C nude mouse assessed as weight loss at 10 mg/kg, iv administered three times on days 1, 5, and 9; assay type: organism-based, HCT-116; design: dose 10 mg/kg, route intravenous; details: in vivo

Structure (SMILES)	Activity
COc1c(Cl)c2c(c(OC)c1OC)-c1ccc(OC)c(=O)cc1[C@@H](NC(=S)Nc1ccc(N(C)C)cc1)CC2	Non-toxic

system: Mus musculus; experiment: Toxicity in human HCT116 cells xenografted in BALB/C nude mouse assessed as weight loss at 50 mg/kg, iv administered three times on days 1, 5, and 9; assay type: organism-based, HCT-116; design: dose 50 mg/kg, route intravenous; details: in vivo

Structure (SMILES)	Activity
COc1c(Cl)c2c(c(OC)c1OC)-c1ccc(OC)c(=O)cc1[C@@H](NC(=S)N1CCOCC1)CC2	Non-toxic
CCN(CC)C(=S)N[C@H]1CCc2c(Cl)c(OC)c(OC)c(OC)c2-c2ccc(OC)c(=O)cc21	Non-toxic

system: Mus musculus; experiment: Toxicity in human HCT116 cells xenografted in BALB/C nude mouse assessed as weight loss at 25 mg/kg, iv administered three times on days 1, 5, and 9; assay type: organism-based, HCT-116; design: dose 25 mg/kg, route intravenous; details: in vivo

Structure (SMILES)	Activity
COc1c(Cl)c2c(c(OC)c1OC)-c1ccc(OC)c(=O)cc1[C@@H](NC(=S)N1CCOCC1)CC2	Non-toxic
CCN(CC)C(=S)N[C@H]1CCc2c(Cl)c(OC)c(OC)c(OC)c2-c2ccc(OC)c(=O)cc21	Non-toxic

system: Mus musculus; experiment: Toxicity in human HCT116 cells xenografted in BALB/C nude mouse assessed as weight loss at 40 mg/kg, iv administered three times on days 1, 5, and 9; assay type: organism-based, HCT-116; design: dose 40 mg/kg, route intravenous; details: in vivo

Structure (SMILES)	Activity
CCNC(=S)N[C@H]1CCc2c(Cl)c(OC)c(OC)c(OC)c2-c2ccc(OC)c(=O)cc21	Non-toxic

system: Mus musculus; experiment: Toxicity in human HCT116 cells xenografted in BALB/C nude mouse assessed as weight loss at 20 mg/kg, iv administered three times on days 1, 5, and 9; assay type: organism-based, HCT-116; design: dose 20 mg/kg, route intravenous; details: in vivo

Structure (SMILES)	Activity
COc1c(Cl)c2c(c(OC)c1OC)-c1ccc(OC)c(=O)cc1[C@@H](NC(=S)Nc1ccc(N(C)C)cc1)CC2	Non-toxic
CCNC(=S)N[C@H]1CCc2c(Cl)c(OC)c(OC)c(OC)c2-c2ccc(OC)c(=O)cc21	Non-toxic

system: Mus musculus; experiment: Toxicity in human HCT116 cells xenografted in BALB/C nude mouse assessed as mouse mortality at 10 mg/kg, iv administered three times on days 1, 5, and 9; assay type: organism-based, HCT-116; design: dose 10 mg/kg, route intravenous; details: in vivo

Structure (SMILES)	Activity
COc1c(Cl)c2c(c(OC)c1OC)-c1ccc(OC)c(=O)cc1[C@@H](NC(=S)Nc1ccc(N(C)C)cc1)CC2	Non-toxic

system: Mus musculus; experiment: Toxicity in human HCT116 cells xenografted in BALB/C nude mouse assessed as mouse mortality at 50 mg/kg, iv administered three times on days 1, 5, and 9; assay type: organism-based, HCT-116; design: dose 50 mg/kg, route intravenous; details: in vivo

Structure (SMILES)	Activity
COc1c(Cl)c2c(c(OC)c1OC)-c1ccc(OC)c(=O)cc1[C@@H](NC(=S)N1CCOCC1)CC2	Non-toxic
CCN(CC)C(=S)N[C@H]1CCc2c(Cl)c(OC)c(OC)c(OC)c2-c2ccc(OC)c(=O)cc21	Non-toxic

system: Mus musculus; experiment: Toxicity in human HCT116 cells xenografted in BALB/C nude mouse assessed as mouse mortality at 25 mg/kg, iv administered three times on days 1, 5, and 9; assay type: organism-based, HCT-116; design: dose 25 mg/kg, route intravenous; details: in vivo

Structure (SMILES)	Activity
COc1c(Cl)c2c(c(OC)c1OC)-c1ccc(OC)c(=O)cc1[C@@H](NC(=S)N1CCOCC1)CC2	Non-toxic
CCN(CC)C(=S)N[C@H]1CCc2c(Cl)c(OC)c(OC)c(OC)c2-c2ccc(OC)c(=O)cc21	Non-toxic

system: Mus musculus; experiment: Toxicity in human HCT116 cells xenografted in BALB/C nude mouse assessed as mouse mortality at 40 mg/kg, iv administered three times on days 1, 5, and 9; assay type: organism-based, HCT-116; design: dose 40 mg/kg, route intravenous; details: in vivo

Structure (SMILES)	Activity
CCNC(=S)N[C@H]1CCc2c(Cl)c(OC)c(OC)c(OC)c2-c2ccc(OC)c(=O)cc21	Non-toxic

system: Mus musculus; experiment: Toxicity in human HCT116 cells xenografted in BALB/C nude mouse assessed as mouse mortality at 20 mg/kg, iv administered three times on days 1, 5, and 9; assay type: organism-based, HCT-116; design: dose 20 mg/kg, route intravenous; details: in vivo

Structure (SMILES)	Activity
COc1c(Cl)c2c(c(OC)c1OC)-c1ccc(OC)c(=O)cc1[C@@H](NC(=S)Nc1ccc(N(C)C)cc1)CC2	Non-toxic
CCNC(=S)N[C@H]1CCc2c(Cl)c(OC)c(OC)c(OC)c2-c2ccc(OC)c(=O)cc21	Non-toxic

system: HCT-116; experiment: Antitumor activity against human HCT116 cells xenografted in BALB/C nude mouse assessed as tumor growth inhibition rate at 10 mg/kg, iv administered three times on days 1, 5, and 9; assay type: functional; details: read-out: TGI

Structure (SMILES)	inhibition in vivo at 10 mg/kg [%]
COc1c(Cl)c2c(c(OC)c1OC)-c1ccc(OC)c(=O)cc1[C@@H](NC(=S)Nc1ccc(N(C)C)cc1)CC2	32.6

system: HCT-116; experiment: Antitumor activity against human HCT116 cells xenografted in BALB/C nude mouse assessed as tumor growth inhibition rate at 50 mg/kg, iv administered three times on days 1, 5, and 9; assay type: functional; details: read-out: TGI

Structure (SMILES)	inhibition in vivo at 50 mg/kg [%]
COc1c(Cl)c2c(c(OC)c1OC)-c1ccc(OC)c(=O)cc1[C@@H](NC(=S)N1CCOCC1)CC2	52.7
CCN(CC)C(=S)N[C@H]1CCc2c(Cl)c(OC)c(OC)c(OC)c2-c2ccc(OC)c(=O)cc21	54.6

system: HCT-116; experiment: Antitumor activity against human HCT116 cells xenografted in BALB/C nude mouse assessed as tumor growth inhibition rate at 25 mg/kg, iv administered three times on days 1, 5, and 9; assay type: functional; details: read-out: TGI

Structure (SMILES)	inhibition in vivo at 25 mg/kg [%]
COc1c(Cl)c2c(c(OC)c1OC)-c1ccc(OC)c(=O)cc1[C@@H](NC(=S)N1CCOCC1)CC2	31.3
CCN(CC)C(=S)N[C@H]1CCc2c(Cl)c(OC)c(OC)c(OC)c2-c2ccc(OC)c(=O)cc21	29.5

system: HCT-116; experiment: Antitumor activity against human HCT116 cells xenografted in BALB/C nude mouse assessed as tumor growth inhibition rate at 40 mg/kg, iv administered three times on days 1, 5, and 9; assay type: functional; details: read-out: TGI

Structure (SMILES)	inhibition in vivo at 40 mg/kg [%]
CCNC(=S)N[C@H]1CCc2c(Cl)c(OC)c(OC)c(OC)c2-c2ccc(OC)c(=O)cc21	62.6

system: HCT-116; experiment: Antitumor activity against human HCT116 cells xenografted in BALB/C nude mouse assessed as tumor growth inhibition rate at 20 mg/kg, iv administered three times on days 1, 5, and 9; assay type: functional; details: read-out: TGI

Structure (SMILES)	inhibition in vivo at 20 mg/kg [%]
COc1c(Cl)c2c(c(OC)c1OC)-c1ccc(OC)c(=O)cc1[C@@H](NC(=S)Nc1ccc(N(C)C)cc1)CC2	52.5
CCNC(=S)N[C@H]1CCc2c(Cl)c(OC)c(OC)c(OC)c2-c2ccc(OC)c(=O)cc21	44.4

system: not listed separately; experiment: Metabolic stability in BALB/c mouse hepatic microsomes assessed per mg of microsomal protein at 1 umol/L preincubated for 5 mins by LC-MS/MS method; assay type: ADME, Liver, Microsome; details: 1 µM

Structure (SMILES)	Intrinsic clearance [mL/min/mg]
COc1c(Cl)c2c(c(OC)c1OC)-c1ccc(OC)c(=O)cc1[C@@H](NC(=S)N1CCOCC1)CC2	0.061
COc1c(Cl)c2c(c(OC)c1OC)-c1ccc(OC)c(=O)cc1[C@@H](NC(=S)Nc1cc(C)[nH]n1)CC2	0.004
COc1c(Cl)c2c(c(OC)c1OC)-c1ccc(OC)c(=O)cc1[C@@H](NC(=S)Nc1ccc(N(C)C)cc1)CC2	0.152
CCNC(=S)N[C@H]1CCc2c(Cl)c(OC)c(OC)c(OC)c2-c2ccc(OC)c(=O)cc21	0.124
CCN(CC)C(=S)N[C@H]1CCc2c(Cl)c(OC)c(OC)c(OC)c2-c2ccc(OC)c(=O)cc21	0.541

system: HCT-116; experiment: Cytotoxicity against human HCT116 cells assessed as inhibition of cell proliferation after 96 hrs; assay type: functional, cell-based; details: HCT-116, 96 h

Structure (SMILES)	IC50 [nM]
COc1c(Cl)c2c(c(OC)c1OC)-c1ccc(OC)c(=O)cc1[C@@H](NC(=S)N1CCOCC1)CC2	9.1
COc1c(Cl)c2c(c(OC)c1OC)-c1ccc(OC)c(=O)cc1[C@@H](NC(=S)Nc1cc(C)[nH]n1)CC2	0.3
COc1c(Cl)c2c(c(OC)c1OC)-c1ccc(OC)c(=O)cc1[C@@H](NC(=S)Nc1ccc(N(C)C)cc1)CC2	1.1
CCNC(=S)N[C@H]1CCc2c(Cl)c(OC)c(OC)c(OC)c2-c2ccc(OC)c(=O)cc21	7.9
CCN(CC)C(=S)N[C@H]1CCc2c(Cl)c(OC)c(OC)c(OC)c2-c2ccc(OC)c(=O)cc21	6.9

system: HT-29; experiment: Cytotoxicity against human HT-29 cells assessed as inhibition of cell proliferation after 96 hrs; assay type: functional, cell-based; details: HT-29, 96 h

Structure (SMILES)	IC50 [nM]
COc1c(Cl)c2c(c(OC)c1OC)-c1ccc(OC)c(=O)cc1[C@@H](NC(=S)N1CCOCC1)CC2	7.2
COc1c(Cl)c2c(c(OC)c1OC)-c1ccc(OC)c(=O)cc1[C@@H](NC(=S)Nc1cc(C)[nH]n1)CC2	0.3
COc1c(Cl)c2c(c(OC)c1OC)-c1ccc(OC)c(=O)cc1[C@@H](NC(=S)Nc1ccc(N(C)C)cc1)CC2	0.3
CCNC(=S)N[C@H]1CCc2c(Cl)c(OC)c(OC)c(OC)c2-c2ccc(OC)c(=O)cc21	8.6
CCN(CC)C(=S)N[C@H]1CCc2c(Cl)c(OC)c(OC)c(OC)c2-c2ccc(OC)c(=O)cc21	6.1

system: A549; experiment: Cytotoxicity against human A549 cells assessed as inhibition of cell proliferation after 96 hrs; assay type: functional, cell-based; details: A549, 96 h

Structure (SMILES)	IC50 [nM]
COc1c(Cl)c2c(c(OC)c1OC)-c1ccc(OC)c(=O)cc1[C@@H](NC(=S)N1CCOCC1)CC2	44.9
COc1c(Cl)c2c(c(OC)c1OC)-c1ccc(OC)c(=O)cc1[C@@H](NC(=S)Nc1cc(C)[nH]n1)CC2	2
COc1c(Cl)c2c(c(OC)c1OC)-c1ccc(OC)c(=O)cc1[C@@H](NC(=S)Nc1ccc(N(C)C)cc1)CC2	1.8
CCNC(=S)N[C@H]1CCc2c(Cl)c(OC)c(OC)c(OC)c2-c2ccc(OC)c(=O)cc21	37.9
CCN(CC)C(=S)N[C@H]1CCc2c(Cl)c(OC)c(OC)c(OC)c2-c2ccc(OC)c(=O)cc21	10.1
